Where a name gives a salt, the structure may show the parent alone. Read-outs that look alike come from different tables or passages of the source. Marks after values point to notes of the source that are not given here. Bounds are passed on as bounds.

Assay [1] has as its target T1, eqBChE (Equus caballus, UniProt P81908).
T1 construct: BChE (equine serum BChE (eqBChE)); purchased Sigma-Aldrich (Shanghai, PRC); host or cells: equine serum
The settings on record: same conditions, cited from earlier work.

Assay [2] has as its target T2, elAChE (electric eel AChE) (Electrophorus electricus, UniProt O42275).
T2 construct: purchased Sigma-Aldrich (Shanghai, PRC)
The settings on record: after pre-incubation with the enzyme for 60 min; read-out: elAChE IC50 Mean ± SD; cited from earlier work.

Assay [3] deals with T1, eqBChE. The settings on record: same conditions, cited from earlier work. This is another data set of the same source.
The subject of a further assay is BChE. The following applies: cited from earlier work.
The next assay relates to AChE. The following applies: cited from earlier work.
For assay [4], the target named is T3, eqBChE (equine serum BChE) (Equus caballus, UniProt P81908).
T3 construct: BChE (equine serum BChE (eqBChE)); purchased Sigma-Aldrich (Shanghai, PRC); host or cells: equine serum
T3 sequence (P81908 whole entry): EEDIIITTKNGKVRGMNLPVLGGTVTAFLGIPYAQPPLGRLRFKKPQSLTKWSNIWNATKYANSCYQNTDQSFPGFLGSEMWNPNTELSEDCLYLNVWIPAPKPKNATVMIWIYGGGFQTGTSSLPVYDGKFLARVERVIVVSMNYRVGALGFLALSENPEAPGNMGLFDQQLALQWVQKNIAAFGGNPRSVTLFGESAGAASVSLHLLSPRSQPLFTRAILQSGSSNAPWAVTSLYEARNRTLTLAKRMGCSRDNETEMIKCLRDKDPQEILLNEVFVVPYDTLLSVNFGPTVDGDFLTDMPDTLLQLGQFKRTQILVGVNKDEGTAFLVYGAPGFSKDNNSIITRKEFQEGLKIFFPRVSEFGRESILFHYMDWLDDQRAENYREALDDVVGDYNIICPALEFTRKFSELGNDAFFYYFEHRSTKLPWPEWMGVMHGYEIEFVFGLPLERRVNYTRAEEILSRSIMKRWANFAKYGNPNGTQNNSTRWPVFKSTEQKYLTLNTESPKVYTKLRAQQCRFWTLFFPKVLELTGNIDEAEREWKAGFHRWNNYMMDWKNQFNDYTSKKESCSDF
As to the kind of experiment: Modified Ellman's assay, IC50 for eqBChE. The following applies: for fold less effective eqBChE inhibitor than the meta-position derivative: para- vs meta-position carbamate: MTR-13 vs MTR-1, MTR-14 vs MTR-2, MTR-15 vs MTR-3. It counts as biochemical. The procedure:
(§1) The inhibitory activities of the synthesized compounds on ChEs were evaluated utilizing elAChE and eqBChE.
(§2) The ChE inhibition abilities of the compounds were determined using a modified version of Ellman’s assay. All the experiments were conducted in 96-well plates, and the readings were obtained using an EnSpire Multimode 2300 plate reader (Perkin Elmer, MA, USA) or a multimode microplate reader (Berthold Technologies). elAChE, eqBChE, S-acetylthiocholine iodide (ATCh), S-butyrylthiocholine iodide (BTCh) and 5-5′-dithiobis (2-nitrobenzoic) acid (DTNB) were purchased from Sigma-Aldrich (Shanghai, PRC). ATCh and BTCh stock solutions were freshly prepared in water. A stock solution of DTNB (Ellman’s reagent) was prepared fresh in a sodium phosphate buffer (100 mM, pH 7, 0.15% NaHCO3 w/v). Stock solutions of drugs were prepared in a solution of acetonitrile and water (v:v = 1:9). The pH for the measurements was 8.
(§3) First, 25 μL aliquots of drug solutions at different concentrations were added to 200 μL of elAChE (0.04 U/mL) or eqBChE (0.1 U/mL) in a phosphate buffer (100 mM sodium phosphate buffer, pH 8), and the reaction system was pre-incubated at 37 °C for determined time periods. Then, 25 μL of a solution containing ATCh or BTCh (2.5 mM) and DTNB (3.4 mM) in the 100 mM sodium phosphate buffer was added to the reactions. Enzyme activity (vi) was determined by measuring the absorbance (412 nm) at 37 °C for 5 min. […] A sample containing phosphate buffer (pH 8) in place of the enzyme was analyzed for each drug concentration to account for the spontaneous conversion of the substrate into a product, and the values obtained were subtracted from each measured activity.
(§4) This method was based on the general measurement of ChE activity. […] The measurements were repeated three times for each concentration.

Assay [5] addresses T2, elAChE (electric eel AChE). As to the kind of experiment: biochemical. The procedure: as §1, §2, §3, §4
The target in assay [6] is T1, eqBChE. As to the kind of experiment: Kinetic study of eqBChE inhibition, carbamylation rate constant kI. The following applies: pre-incubation 1-45 min, seven concentrations, read-out: kI, second-order carbamylation rate constant, Mean ± SD (converted). It counts as biochemical, equine. As for the experimental part:
as §3

Assay [7] deals with T1, eqBChE. As to the kind of experiment: Decarbamylation rate constant k3 of carbamylated eqBChE. It counts as biochemical, equine.
Where [8] appears, read: after pre-incubation with the enzyme for 60 min, 37 °C, pH 8, read-out: eqBChE IC50 Mean ± SD.
Setting [9] is: elAChE IC50 Mean ± SD, after pre-incubation with the enzyme for 60 min, 37 °C, pH 8.
Setting [10] is: after pre-incubation with the enzyme for 60 min, 37 °C, pH 8, read-out: elAChE IC50 Mean ± SD.

T1 sequence (P81908 whole entry): as above
T2 sequence (O42275 24-633): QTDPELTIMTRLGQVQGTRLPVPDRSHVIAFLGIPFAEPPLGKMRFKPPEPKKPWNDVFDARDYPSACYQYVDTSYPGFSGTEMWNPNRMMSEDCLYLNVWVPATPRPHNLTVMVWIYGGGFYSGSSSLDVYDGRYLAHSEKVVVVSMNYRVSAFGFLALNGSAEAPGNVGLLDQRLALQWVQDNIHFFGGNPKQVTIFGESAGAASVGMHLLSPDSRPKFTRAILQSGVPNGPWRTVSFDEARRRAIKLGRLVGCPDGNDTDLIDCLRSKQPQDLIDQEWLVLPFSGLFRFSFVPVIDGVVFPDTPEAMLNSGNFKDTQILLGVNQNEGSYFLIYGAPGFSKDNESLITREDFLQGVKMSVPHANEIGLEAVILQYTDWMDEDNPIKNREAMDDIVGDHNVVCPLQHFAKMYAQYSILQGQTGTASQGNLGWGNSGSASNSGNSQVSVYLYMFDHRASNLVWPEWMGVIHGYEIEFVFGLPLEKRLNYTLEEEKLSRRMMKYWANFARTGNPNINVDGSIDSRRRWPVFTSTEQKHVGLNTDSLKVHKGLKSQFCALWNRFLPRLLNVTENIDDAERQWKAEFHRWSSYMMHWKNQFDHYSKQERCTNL

As for `CN(C)C(=O)Oc1cc(OC(=O)N(C)C)cc(C(O)CNC(C)(C)C)c1` (stereo not shown) [Bambuterol], the figures for the “k3, decarbamylation rate constant, Mean ± SD” value at eqBChE [1] (listed as bambuterol) and at eqBChE [1] were 0.0839 ± 0.0028 h⁻¹ and 0.0839 ± 0.0028 ^a ×h^−1, respectively. Besides, the values for the IC50 (in assay [2]; with BChE; in the assay on AChE) were greater than 100000 nM, 3 nM and 30000 nM, respectively. Besides, the “kI (kI1), carbamylation rate constant, Mean ± SD” value on eqBChE [3] (listed as bambuterol) was 1.44 ± 0.02 ×10^5 M^−1 min^−1; on eqBChE [3], 1.44 ± 0.02 ^a ×10^5 M^−1 min^−1.

For `CCN(C)C(=O)Oc1cccc(C(O)CNC(C)(C)C)c1` (stereo not shown) [MTR-1, 3-(2-(Tert-butylamino)-1-hydroxyethyl)phenyl ethyl(methyl)carbamate Hydrochloride], the IC50 in assay [4] (setting [8]) is 370 ± 20 nM; in [5] (setting [9]) it was greater than 100000 nM.

Regarding `CCN(C)C(=O)Oc1cccc(C(O)CNC(C)(C)CC)c1` (stereo not shown) [MTR-2, 3-(1-Hydroxy-2-(tert-pentylamino)ethyl)phenyl Ethyl(methyl)carbamate hydrochloride], the IC50 in [4] (setting [8]) was 170 ± 10 nM; in assay [5] (setting [9]), greater than 100000 nM.

For `CCN(C)C(=O)Oc1cccc(C(O)CN2CCCCC2)c1` (stereo not shown) [MTR-3, 3-(1-Hydroxy-2-(piperidin-1-yl)ethyl)phenyl Ethyl(methyl)carbamate], the IC50 in assay [4] (as printed in nM in abstract and text, read-out: IC50(BChE)) was 78 nM; in assay [5] (setting [10]), greater than 100000 nM; in [5] (read-out: IC50(AChE)), greater than 100000 nM. The kinact/KI on eqBChE [6] is 4630 M⁻¹ s⁻¹. In addition, the “nature of BChE inhibition” value on eqBChE [7] (activity recovery after dilution) was “pseudo-irreversible”. The “k3, decarbamylation rate constant, Mean ± SD” value on eqBChE [7] (eqBChE, N-methyl-N-ethyl-carbamylated, dilution 1:300, 37 °C, pH 8) was found to be 0.0093 ± 0.0010 h⁻¹.

For `CCN(C)C(=O)Oc1cccc(C(O)CNC2CCCCC2)c1` (stereo not shown) [MTR-4, 3-(2-(Cyclohexylamino)-1-hydroxyethyl)phenyl Ethyl(methyl)carbamate], the values for the IC50 in assay [4] (setting [8]) and in assay [5] (setting [10]) were 9 ± 0.4 nM and 79000 ± 4000 nM, respectively.

Turning to `CCN(C)C(=O)Oc1cccc(C(O)CNC2CCCC2)c1` (stereo not shown) [MTR-5, 3-(2-(Cyclopentylamino)-1-hydroxyethyl)phenyl Ethyl(methyl)carbamate], the IC50 in [4] (setting [8]) was 74 ± 5 nM; in [5] (setting [10]), 92000 ± 7000 nM.

In the case of `CCN(C)C(=O)Oc1cccc(C(O)CN2CCOCC2)c1` (stereo not shown) [MTR-6, 3-(1-Hydroxy-2-morpholinoethyl)phenyl Ethyl(methyl)carbamate], the IC50 in [4] (setting [8]) is 2500 ± 200 nM; in [5] (setting [10]), greater than 100000 nM.

For the compound `CCN(C)C(=O)Oc1cccc(C(O)CN2CCCC2)c1` (stereo not shown) [MTR-7, 3-(1-Hydroxy-2-(pyrrolidin-1-yl)ethyl)phenyl Ethyl(methyl)carbamate], the results for the IC50 in assay [4] (setting [8]) and in assay [5] (setting [10]) were 210 ± 10 nM and 78900 ± 900 nM, respectively.

On to `CCN(C)C(=O)Oc1cccc(C(O)CNc2ccccc2)c1` (stereo not shown) [MTR-8, 3-(1-Hydroxy-2-(phenylamino)ethyl)phenyl Ethyl(methyl)carbamate], for which the IC50 in assay [4] (setting [8]) was 320 ± 20 nM; in [5] (setting [10]), greater than 100000 nM.

Consider `CCN(C)C(=O)Oc1cccc(C(O)CNc2ccc(I)cc2)c1` (stereo not shown) [MTR-9, 3-(1-Hydroxy-2-((4-iodophenyl)amino)ethyl)phenyl Ethyl(methyl)carbamate], for which the results for the IC50 in assay [4] (setting [8]) and in assay [5] (setting [10]) were 1730 ± 50 nM and greater than 100000 nM, respectively.

For `CCN(C)C(=O)Oc1cccc(C(O)CNc2ccc(F)cc2)c1` (stereo not shown) [MTR-10, 3-(2-((4-Fluorophenyl)amino)-1-hydroxyethyl)phenyl Ethyl(methyl)carbamate], the IC50 was 192 ± 7 nM in [4] (setting [8]) and greater than 100000 nM in assay [5] (setting [10]).

As to `CCN(C)C(=O)Oc1cccc(C(O)CNC(C)(C)c2ccccc2)c1` (stereo not shown) [MTR-11, 3-(1-Hydroxy-2-((2-phenylpropan-2-yl)amino)ethyl)phenyl Ethyl(methyl)carbamate], the IC50 was 323 ± 8 nM in [4] (setting [8]) and greater than 100000 nM in assay [5] (setting [10]).

As to `C#Cc1cccc(NCC(O)c2cccc(OC(=O)N(C)CC)c2)c1` (stereo not shown) [MTR-12, 3-(2-((3-Ethynylphenyl)amino)-1-hydroxyethyl)phenyl Ethyl(methyl)carbamate], the IC50 in [4] (setting [8]) was 156 ± 7 nM; in assay [5] (setting [10]) it was greater than 100000 nM.

Take `CCN(C)C(=O)Oc1ccc(C(O)CNC(C)(C)C)cc1` (stereo not shown) [MTR-13, 4-(2-(Tert-butylamino)-1-hydroxyethyl)phenyl Ethyl(methyl)carbamate]: the half-maximal inhibitory concentration (IC50) in [4] (setting [8]) is 8700 ± 300 nM; in assay [5] (setting [10]), greater than 100000 nM. The “fold less effective eqBChE inhibitor than the meta-position derivative” value in assay [4] is listed as 22 fold.

As to `CCN(C)C(=O)Oc1ccc(C(O)CNC(C)(C)CC)cc1` (stereo not shown) [MTR-14, 4-(1-Hydroxy-2-(tert-pentylamino)ethyl)phenyl Ethyl(methyl)carbamate], the half-inhibitory concentration (IC50) in assay [4] (setting [8]) was 1700 ± 100 nM; in assay [5] (setting [10]), greater than 100000 nM. In addition, in assay [4], the “fold less effective eqBChE inhibitor than the meta-position derivative” value is listed as “ninefold”.

With `CCN(C)C(=O)Oc1ccc(C(O)CN2CCCCC2)cc1` (stereo not shown) [MTR-15, 4-(1-Hydroxy-2-(piperidin-1-yl)ethyl)phenyl Ethyl(methyl)carbamate], the results for the IC50 in assay [4] (setting [8]) and in assay [5] (setting [10]) were 420 ± 20 nM and 59000 ± 16000 nM, respectively.

Source of the values: publication PMC10780165 (Molecules, 2023).
